Entries after “also recorded” stand apart in the source; their conditions may differ.

The source of these data is patent US20250040503A1, “METHOD FOR PRODUCING HAPLOID, AND DOUBLED HAPLOID BETA VULGARIS PLANTS BY MICROSPORE CULTURE” (KWS SAAT SE & Co. KGaA, priority 2021, published 2025).

The series concerns Beta vulgaris (sugar beet) microspores. Kind of series: Callus induction from isolated sugar beet microspores (microspore culture). The class given is cell-based. As to conditions: for callus induction potential in comparison to TSA: comparator TSA 5 μM, same time point, duration and buffer. The source says: The experimental set-up is detailed in the below Examples. In the Figures, each column represents a different genotype. […] Time point, duration and buffer used were always identical for all treatments in the different rows. The different rows thus only differ from each other in the kind of inhibitor used.
Bracteoles are cut off the inflorescence and buds bigger than 1.8 mm are removed. Remaining part is divided into smaller pieces, preferably pieces of 1-1.5 cm. Buds smaller than 1.8 mm contain typically microspores at the tetrad and uninuclear developmental stage, which are the optimal developmental stages for further progressing. However, it should be noted that due to broad variation of different genotypes and donor sources (e.g., monogerm and multigerm), the correlation between the maximum flower bud size and nuclear stages of the microspores needs to be established for each genotype individually. The determination of the nuclear stages is carried out using a fluorescence-based staining method. The method contains fixation of the cells for instances with Ethanol acetic acid and DAPI staining (Kim, Moon-Za, and In-Chang Jang. “Rapid Assessment of Microspore Development Stage in Pepper Using DAPI and Ferric chloride.” Journal of Plant Biotechnology 2.3 (2000): 129-134.).
The flower shoot segments are transferred to isolation buffer, e.g., in a blending device and 40 ml (isolation buffer, Table 1) is added. The Isolation buffer contains macro- and microsalts, amino acids, monosaccharides and one or more complex protein compositions, pH is adjusted to pH 7.5. The complex protein composition or its source comprises preferably hydrolysed or partially hydrolysed protein matter or protein source. It can derive from any source that is known or that be applicable in addition, such as milk (such as, casein, whey), animal (such as, meat, fish), cereal (such as, rice, corn), plant (such as, soybean) or its combination. This proteinoid comprises milk protein isolates, as described herein lactoprotein concentrate, casein isolates, casein hydrolysate, lactalbumin, casein-sodium or calcium caseinate, full cow's milk, partially or completely skimmed milk, soy protein isolate, soybean protein concentrate etc. In one embodiment, complex protein composition comprises the protein source of the milk protein deriving from bovine milk.
The material is homogenized, e.g., by means of a homogenizer such as a Waring blender or sonication device at around 3000 rpm for 1 min. The crude cell suspension is passed stepwise through cell strainers of pore sizes between 25 μm and 100 μm. The purified suspension is transferred into tubes for subsequent centrifugation at ˜200 g for 3 min.
The supernatant is removed and the pellet is resuspended in a suitable amount of isolation buffer. An aliquot of the cell solution is taken for evaluation of the number of cells per ml by means of a counting chamber. Cell density is adjusted preferably to a cell density of 25,000 to 500,000 cells with TM media.
If the HDACi trichostatin A (TSA) is used, it is dissolved in dimethylsulfoxide (DMSO) to a final concentration of between 1 nM and 10 μM, preferably 100 nM to 10 μM, more preferably 1 μM to 10 μM, depending on the genotype and the donor sources (e.g., monogerm and multigerm). Other non-limiting examples of HDACi which may be used belong to the class of hydroxamic acids and hydroxamates, such as vorinostat (SAHA), belinostat (PXD101), LAQ824, and panobinostat (LBH589). Other non-limiting examples of HDACis for use according to the invention include cyclic tetrapeptides (such as trapoxin B) and depsipeptides, such as romidepsin (FK228), benzamides such as entinostat (MS-275), C1994, and mocetinostat (MGCD0103), electrophilic ketones, and aliphatic acid compounds such as phenylbutyrate and valproic acid.
After 1 to 10 days incubation at 32° C. the TSA is removed by centrifugation preferably at ˜200 g.

Turning to `Cc1sc2c(c1C)C(c1ccc(Cl)cc1)=N[C@@H](CC(N)=O)c1nnc(C)n1-2` [CPI-203], the “callus induction potential in comparison to TSA” value (“callus induction potential” for short) was “performed worse than TSA”. Also, the callus induction (CPI-203 1 μM, 2.5 μM and 5 μM, 6 genotypes, FIG. 6) was “slight positive effect; also recorded: very small, but positive, effect”.
Consider `CC(=O)N1c2ccc(-c3ccc(C(=O)O)cc3)cc2[C@H](Nc2ccc(Cl)cc2)C[C@@H]1C` [I-Bet 726], for which the callus induction (I-Bet 726 1 μM, 2.5 μM and 5 μM, FIG. 7) is reported as “No callus induction”.
Take `O=C(CCCCCCC(=O)Nc1ccccc1)NO` [SAHA, vorinostat]: the “callus induction potential” value is “less effective than TSA”. The “toxicity in comparison to TSA” value (SAHA 1 μM and 5 μM vs TSA 5 μM, microspore culture) was “more toxic”. Moreover, where the note is “SAHA 1 μM and 5 μM, same buffer as TSA, six genotypes, FIG. 4”, the callus induction is given as “good effect on some genotypes”.
In the case of `CC(/C=C/C(=O)NO)=C\[C@@H](C)C(=O)c1ccc(N(C)C)cc1` [TSA, trichostatin A], the “callus induction potential” value is “performed best”. The callus induction (TSA 5 μM, six genotypes, positive control of FIG. 4 to FIG. 7) is “strong callus induction in all six genotypes”. Besides, where the note is “TSA in the lower μM or even nM range and in higher concentrations, data not shown”, the “callus induction performance at other concentrations” value is listed as “performed well”.
